In ChEMBL document CHEMBL4342467, “Discovery of a Novel Dual-Target Inhibitor of ERK1 and ERK5 That Induces Regulated Cell Death to Overcome Compensatory Mechanism in Specific Tumor Types” (J Med Chem, 2020) one finds inhibition and IC50 data, which are given here for 30 compounds.

Test [1] addresses Mitogen-activated protein kinase 3 (Homo sapiens) (UniProt P27361). In words: Inhibition of ERK1 (unknown origin) at 1 uM by Z'-Lyte assay relative to control.
Test [2] deals with Mitogen-activated protein kinase 1 (Homo sapiens) (UniProt P28482). The test can be described thus: Inhibition of ERK2 (unknown origin) at 1 uM by Z'-Lyte assay relative to control.
The target in test [3] is Mitogen-activated protein kinase 7 (Homo sapiens) (UniProt Q13164). The test can be described thus: Inhibition of ERK5 (unknown origin) at 1 uM by Z'-Lyte assay relative to control.
The test system of another test is HL-60. The test can be described thus: Antiproliferative activity against human HL60 cells assessed as reduction in cell viability measured after 24 hrs. Format: functional, cell-based. As to conditions: HL-60, 24 h.
Another test deals with MKN-74. In words: Antiproliferative activity against human MKN74 cells assessed as reduction in cell viability measured after 24 hrs. The class given is functional, cell-based. The conditions noted are these: MKN-74, 24 h.
The test system of a further test is HeLa. The test can be described thus: Antiproliferative activity against human HeLa cells assessed as reduction in cell viability measured after 24 hrs. Format: functional, cell-based.

Where only a bound is given, the exact number is not on record here.

A word on the inhibition: it is how much of the control response was suppressed. Low values mean a weak effect, high ones a strong effect. The term IC50 denotes the concentration needed to halve the response being measured.

Sequence of Mitogen-activated protein kinase 7 (Homo sapiens) (Q13164 2-816 limits assumed): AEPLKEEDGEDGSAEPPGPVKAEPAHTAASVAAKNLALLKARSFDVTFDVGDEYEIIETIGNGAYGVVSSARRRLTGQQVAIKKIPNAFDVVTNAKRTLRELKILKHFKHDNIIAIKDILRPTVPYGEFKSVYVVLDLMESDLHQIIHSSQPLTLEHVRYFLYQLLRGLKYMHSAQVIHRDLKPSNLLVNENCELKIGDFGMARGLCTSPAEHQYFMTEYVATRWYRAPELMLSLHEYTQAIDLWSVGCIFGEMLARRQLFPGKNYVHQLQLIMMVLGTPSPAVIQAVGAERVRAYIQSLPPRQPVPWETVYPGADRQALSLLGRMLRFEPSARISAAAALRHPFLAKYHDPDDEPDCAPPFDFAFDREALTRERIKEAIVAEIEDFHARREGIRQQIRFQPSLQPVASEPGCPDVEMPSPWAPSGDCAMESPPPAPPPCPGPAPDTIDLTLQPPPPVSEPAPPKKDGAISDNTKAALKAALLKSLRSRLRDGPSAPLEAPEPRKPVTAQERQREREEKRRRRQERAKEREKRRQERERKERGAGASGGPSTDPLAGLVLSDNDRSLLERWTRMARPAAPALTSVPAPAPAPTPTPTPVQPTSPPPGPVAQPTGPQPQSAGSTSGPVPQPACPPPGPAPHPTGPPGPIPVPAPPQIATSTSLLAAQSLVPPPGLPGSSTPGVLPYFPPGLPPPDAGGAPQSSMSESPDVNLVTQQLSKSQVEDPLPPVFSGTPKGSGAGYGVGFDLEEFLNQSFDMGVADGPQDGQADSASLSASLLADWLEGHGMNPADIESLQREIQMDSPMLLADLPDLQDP
Sequence of Mitogen-activated protein kinase 1 (Homo sapiens) (P28482 whole entry): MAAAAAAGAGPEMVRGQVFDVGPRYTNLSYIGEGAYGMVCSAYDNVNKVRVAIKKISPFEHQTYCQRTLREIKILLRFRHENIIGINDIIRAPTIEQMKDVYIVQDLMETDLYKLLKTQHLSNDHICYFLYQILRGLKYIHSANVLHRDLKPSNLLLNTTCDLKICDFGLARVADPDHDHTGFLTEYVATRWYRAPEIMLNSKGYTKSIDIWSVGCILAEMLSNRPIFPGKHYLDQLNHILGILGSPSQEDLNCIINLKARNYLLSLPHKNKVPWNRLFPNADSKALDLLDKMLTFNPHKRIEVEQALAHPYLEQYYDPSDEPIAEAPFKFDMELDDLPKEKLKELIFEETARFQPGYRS
Sequence of Mitogen-activated protein kinase 3 (Homo sapiens) (P27361 whole entry): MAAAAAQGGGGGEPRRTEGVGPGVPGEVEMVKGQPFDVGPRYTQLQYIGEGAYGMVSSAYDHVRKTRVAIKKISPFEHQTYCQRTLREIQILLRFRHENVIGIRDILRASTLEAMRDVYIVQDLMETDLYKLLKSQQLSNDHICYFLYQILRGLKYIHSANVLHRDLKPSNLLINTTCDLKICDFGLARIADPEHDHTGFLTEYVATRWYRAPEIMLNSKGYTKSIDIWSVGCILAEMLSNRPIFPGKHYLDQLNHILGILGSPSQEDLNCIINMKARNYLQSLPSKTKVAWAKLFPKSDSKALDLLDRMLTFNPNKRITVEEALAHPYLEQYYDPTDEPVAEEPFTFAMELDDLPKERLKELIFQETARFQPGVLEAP

For the compound `COc1ccccc1NC(=S)N1CCc2c(sc(NC(=O)c3ccccc3C(F)(F)F)c2C(N)=O)C1`, the values for the inhibition in test [1], in test [2] and in test [3] were 77.6%, 74.9% and 61.7%, respectively. The figures for the 50% inhibitory concentration (IC50) with HL-60, in the test with MKN-74 and with HeLa were over 50 µM, 34.5 µM and over 50 µM, respectively.

For the compound `NC(=O)c1c(NC(=O)c2ccccc2Cl)sc2c1CCN(C(=O)Nc1ccccc1Cl)C2`, the inhibition in test [1] was determined as 89.2%; in test [2] it was 88.4%; in test [3], 89.9%. Also, the values for the IC50 in the test with HL-60, with MKN-74 and in the test with HeLa were 12.5 µM, 16.3 µM and 45.4 µM, respectively.

In the case of `NC(=O)c1c(NC(=O)c2ccccc2Cl)sc2c1CCN(C(=S)Nc1ccccc1F)C2`, the inhibition in test [1] amounted to 88.4%; in test [2] it was 82.8%; in test [3], 70.7%. Besides, the results for the half-inhibitory concentration (IC50) in the test with HL-60, in the test on MKN-74 and in the test on HeLa were 4.97 µM, 12.6 µM and 28.7 µM, respectively.

Take `NC(=O)c1c(NC(=O)c2ccc(C(F)(F)F)cc2)sc2c1CCN(Cc1c(Cl)cccc1Cl)C2`: the inhibition in test [1] is 37.3%; in test [2], 35.6%; in test [3], 38.7%. Moreover, the IC50 in the test with HL-60 is 10.6 µM; with MKN-74, 8.53 µM; in the test on HeLa, over 50 µM.

`NC(=O)c1c(NC(=O)c2ccccc2Cl)sc2c1CCN(C(=S)Nc1ccccc1I)C2`: the inhibition in test [1] worked out at 88%; in test [2], 87.3%; in test [3] it was 81%. Moreover, the results for the IC50 with HL-60, in the test on MKN-74 and with HeLa were 4.43 µM, 2.63 µM and 28.9 µM, respectively.

For the compound `NC(=O)c1c(NC(=O)c2ccccc2Br)sc2c1CCN(C(=S)Nc1ccccc1Cl)C2`, the inhibition came to 87.7% in test [1], 89.7% in test [2] and 80.5% in test [3]. Further, the IC50 with HL-60 was 14.6 µM; in the test with MKN-74, 12.9 µM; in the test with HeLa, 46.9 µM.

As to `Cc1ccc(C(=O)Nc2sc3c(c2C(N)=O)CCN(C(=O)Nc2ccccc2Cl)C3)cc1`, the inhibition came out at 70.4% in test [1], 71.9% in test [2] and 53.8% in test [3]. Moreover, the IC50 was determined as 14.6 µM in the test on HL-60, 27.6 µM in the test with MKN-74 and 32.9 µM with HeLa.

`NC(=O)c1c(NC(=O)c2ccccc2Cl)sc2c1CCN(Cc1ccccc1F)C2`: the inhibition in test [1] came to 68.3%; in test [2], 71.6%; in test [3], 37.9%. Moreover, the 50% inhibitory concentration (IC50) is 21.8 µM with HL-60, 12.9 µM in the test on MKN-74 and over 50 µM in the test on HeLa.

For the compound `Cc1ccc(C(=O)Nc2sc3c(c2C(N)=O)CCN(Cc2c(Cl)cccc2Cl)C3)cc1`, the inhibition in test [1] is 42.8%; in test [2], 45.4%; in test [3], 46%. Moreover, the half-inhibitory concentration (IC50) with HL-60 was 10 µM; with MKN-74, 12.3 µM; with HeLa it was 47.4 µM.

Take `NC(=O)c1c(NC(=O)c2ccc(C(F)(F)F)cc2)sc2c1CCN(Cc1ccc(Cl)cc1)C2`: the inhibition in test [1] is 47.8%; in test [2], 43.3%; in test [3], 61.1%. Also, the concentration for half-maximal inhibition (IC50) with HL-60, in the test with MKN-74 and with HeLa was over 50 µM in each case.

Consider `NC(=O)c1c(NC(=O)c2ccccc2Br)sc2c1CCN(C(=S)Nc1ccccc1F)C2`, for which the inhibition was 70.1% in test [1], 68.7% in test [2] and 65.7% in test [3]. For the same compound, the IC50 in the test on HL-60, with MKN-74 and in the test on HeLa was over 50 µM throughout.

Regarding `NC(=O)c1c(NC(=O)c2ccc(C(F)(F)F)cc2)sc2c1CCN(C(=S)Nc1ccccc1Cl)C2`, the results for the inhibition in test [1], in test [2] and in test [3] were 75.6%, 79% and 57.5%, respectively. Moreover, the IC50 in the test with HL-60 amounted to 36.1 µM; in the test on MKN-74 it was 16.4 µM; in the test on HeLa it was 44 µM.

`NC(=O)c1c(NC(=O)c2ccccc2Cl)sc2c1CCN(Cc1ccc([N+](=O)[O-])cc1)C2`: the figures for the inhibition in test [1], in test [2] and in test [3] were 66.2%, 63.1% and 65%, respectively. The IC50 in the test with HL-60 is 11.4 µM; in the test with MKN-74, 31.5 µM; with HeLa, 46.1 µM.

Take `NC(=O)c1c(NC(=O)c2ccncn2)sc2c1CCN(C(=S)Nc1ccccc1Cl)C2`: the inhibition was 48.5% in test [1], 45.7% in test [2] and 38.5% in test [3]. In addition, the IC50 is 34.6 µM in the test on HL-60, 28.4 µM in the test with MKN-74 and over 50 µM in the test with HeLa.

In the case of `CSc1ccccc1C(=O)Nc1sc2c(c1C(N)=O)CCN(C(=S)Nc1ccccc1Cl)C2`, the inhibition in test [1] came to 67.2%; in test [2], 63.4%; in test [3], 49.1%. Further, the IC50 in the test on HL-60 is 30.5 µM; in the test with MKN-74, 6.55 µM; in the test on HeLa it was 34.7 µM.

Regarding `Cc1ccc(C(=O)Nc2sc3c(c2C(N)=O)CCN(Cc2ccc(Cl)cc2Cl)C3)cc1`, the values for the inhibition in test [1], in test [2] and in test [3] were 32.2%, 53.7% and 52.3%, respectively. The IC50 in the test with HL-60 is 19.9 µM; in the test on MKN-74, 25.5 µM; with HeLa it was over 50 µM.

For the compound `NC(=O)c1c(NC(=O)c2cccc([N+](=O)[O-])c2)sc2c1CCN(C(=S)Nc1ccccc1Cl)C2`, the inhibition is 64.2% in test [1], 58.5% in test [2] and 70.7% in test [3]. For the same compound, the concentration for half-maximal inhibition (IC50) in the test with HL-60 came out at 7.04 µM; with MKN-74, 8.85 µM; in the test with HeLa, 40.3 µM.

With `Cc1ccccc1C(=O)Nc1sc2c(c1C(N)=O)CCN(C(=S)Nc1ccccc1C(F)(F)F)C2`, the inhibition was found to be 72% in test [1], 76.9% in test [2] and 60.1% in test [3]. In addition, the IC50 in the test on HL-60 was 23.2 µM; in the test on MKN-74, 17.4 µM; with HeLa, over 50 µM.

Take `NC(=O)c1c(NC(=O)c2ccccc2Cl)sc2c1CCN(C(=S)Nc1cc(C(F)(F)F)cc(C(F)(F)F)c1)C2`: the inhibition in test [1] was determined as 89.3%; in test [2], 88.8%; in test [3], 77.4%. For the same compound, the IC50 was found to be 6.5 µM in the test with HL-60, 15 µM in the test with MKN-74 and 48.9 µM in the test with HeLa.

With `NC(=O)c1c(NC(=O)c2ccccc2Cl)sc2c1CCNC2`, the inhibition in test [1] came to 61.5%; in test [2] it was 64.9%; in test [3], 62.7%. For the same compound, the results for the IC50 in the test on HL-60, with MKN-74 and in the test on HeLa were 18.6 µM, 28.7 µM and 45 µM, respectively.

Take `NC(=O)c1c(NC(=O)c2ccccc2F)sc2c1CCN(C(=S)Nc1ccccc1Cl)C2`: the figures for the inhibition in test [1], in test [2] and in test [3] were 62.4%, 68.6% and 65.2%, respectively. The half-inhibitory concentration (IC50) turned out to be 12.5 µM in the test with HL-60, 11.1 µM with MKN-74 and 19.4 µM with HeLa.

Turning to `CSc1ccccc1NC(=S)N1CCc2c(sc(NC(=O)c3ccccc3Cl)c2C(N)=O)C1`, the values for the inhibition in test [1], in test [2] and in test [3] were 69.5%, 64.6% and 52.6%, respectively. In addition, the IC50 in the test on HL-60 was determined as 14.6 µM; in the test on MKN-74, 13.8 µM; in the test with HeLa, 43.6 µM.

For `NC(=O)c1c(NC(=O)c2ccccc2Cl)sc2c1CCN(Cc1ccccc1)C2`, the results for the inhibition in test [1], in test [2] and in test [3] were 60.1%, 62.9% and 63.7%, respectively. Besides, the IC50 in the test on HL-60 was 12 µM; in the test with MKN-74, 14.5 µM; in the test on HeLa, 38.4 µM.

On to `NC(=O)c1c(NC(=O)c2ccccc2F)sc2c1CCN(Cc1c(Cl)cccc1Cl)C2`, for which the values for the inhibition in test [1], in test [2] and in test [3] were 48.4%, 36.9% and 21.1%, respectively. In addition, the IC50 was 10.3 µM in the test on HL-60, 7.43 µM with MKN-74 and 33 µM with HeLa.

Regarding `NC(=O)c1c(NC(=O)c2ccccc2Cl)sc2c1CCN(C(=S)Nc1ccccc1Br)C2`, the inhibition in test [1] came out at 90.9%; in test [2], 86.9%; in test [3], 88.5%. Also, the half-inhibitory concentration (IC50) in the test with HL-60 turned out to be 9.09 µM; with MKN-74 it was 10.8 µM; with HeLa it was 24.6 µM.

Take `NC(=O)c1c(NC(=O)c2ccccc2Cl)sc2c1CCN(C(=S)Nc1ccccc1C(F)(F)F)C2`: the inhibition in test [1] came to 83.6%; in test [2], 85.7%; in test [3], 76.6%. Besides, the values for the IC50 in the test with HL-60, in the test with MKN-74 and in the test on HeLa were 10.6 µM, 1.87 µM and 26.7 µM, respectively.

Regarding `NC(=O)c1c(NC(=O)c2cccc([N+](=O)[O-])c2)sc2c1CCN(C(=O)Nc1ccccc1Cl)C2`, the inhibition in test [1] is 71.3%; in test [2] it was 60.4%; in test [3] it was 65.7%. Also, the IC50 is 18.5 µM in the test with HL-60, 22.7 µM with MKN-74 and over 50 µM in the test on HeLa.

Take `Cc1ccccc1C(=O)Nc1sc2c(c1C(N)=O)CCN(C(=S)Nc1ccccc1Br)C2`: the values for the inhibition in test [1], in test [2] and in test [3] were 64.7%, 65.2% and 54.9%, respectively. The IC50 in the test on HL-60 was 45.2 µM; in the test with MKN-74 it was over 50 µM; with HeLa it was over 50 µM.

As for `NC(=O)c1c(NC(=O)c2ccccc2I)sc2c1CCN(C(=S)Nc1ccccc1Cl)C2`, the inhibition stood at 83.5% in test [1], 85.8% in test [2] and 80.4% in test [3]. The 50% inhibitory concentration (IC50) in the test on HL-60 was 8.56 µM; in the test on MKN-74 it was 17.5 µM; in the test on HeLa, over 50 µM.

With `NC(=O)c1c(NC(=O)c2ccccc2Cl)sc2c1CCN(C(=S)Nc1cccc3ccccc13)C2`, the results for the inhibition in test [1], in test [2] and in test [3] were 82.8%, 81.3% and 72.5%, respectively. The IC50 in the test with HL-60 was determined as 13.4 µM; with MKN-74, 20.7 µM; in the test on HeLa it was 30.8 µM.
